Molecules are shown by their SMILES. A value given as a limit tells only on which side of the number the result lay.

From patent US10800792B2, “Inhibitors of Bruton's tyrosine kinase and method of their use” (JANSSEN PHARMACEUTICA NV, priority 2015, dated 2020) come the findings set out here.

For the experiment, the target named is unphosphorylated-BTK kinase domain (UP-BTK), GST-tagged human BTK (389-659aa) (Homo sapiens (Human), UniProt Q06187). Nature of the experiment: BTK kinase Lanthascreen binding assay. Conditions: Lanthascreen tracer competition, 60 minutes incubation, pIC50 = negative log of the IC50 in molar. Summed up: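 Compound binding to the unphosphorylated kinase domain was monitored by displacement of a fluorescently labelled tracer in a Lanthascreen format. Potency is given as pIC50, the negative log of the molar IC50.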
Sequence of unphosphorylated-BTK kinase domain (UP-BTK), GST-tagged human BTK (389-659aa) (Q06187 389-659): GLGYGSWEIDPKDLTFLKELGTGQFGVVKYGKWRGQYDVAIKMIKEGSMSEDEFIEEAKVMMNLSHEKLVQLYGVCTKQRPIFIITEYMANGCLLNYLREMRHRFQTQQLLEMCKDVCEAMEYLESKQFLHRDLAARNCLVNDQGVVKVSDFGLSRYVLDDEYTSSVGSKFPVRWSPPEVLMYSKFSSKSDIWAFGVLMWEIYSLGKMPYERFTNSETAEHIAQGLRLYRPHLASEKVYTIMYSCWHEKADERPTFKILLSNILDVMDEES

As to `C=CC(=O)N1CCC[C@@H](NC(=O)c2sc3nccc4c3c2NC(=O)N4c2cccc(C3COC3)c2)C1` [Example 632, (R)—N-(1-Acryloylpiperidin-3-yl)-5-(3-(oxetan-3-yl)phenyl)-4-oxo-4,5-dihydro-3H-1-thia-3,5,8-triazaacenaphthylene-2-carboxamide], the “BTK_I_binding pIC50” value worked out at 5.9.
Turning to `C=CC(=O)N1CCC[C@@H](NC(=O)c2sc3nccc4c3c2NC(=O)N4c2ccc(OC(C)C)c(C)c2)C1` [Example 633, (R)—N-(1-Acryloylpiperidin-3-yl)-5-(4-isopropoxy-3-methylphenyl)-4-oxo-4,5-dihydro-3H-1-thia-3,5,8-triazaacenaphthylene-2-carboxamide], the “BTK_I_binding pIC50” value is recorded as 5.8.
As to `O=C(N[C@@H]1CCCNC1)c1sc2nccc3c2c1NC(=O)N3c1ccnc(C2CCC2)c1` [Example 634, (R)-5-(2-Cyclobutylpyridin-4-yl)-4-oxo-N-(piperidin-3-yl)-4,5-dihydro-3H-1-thia-3,5,8-triazaacenaphthylene-2-carboxamide], the “BTK_I_binding pIC50” value is given as 5.8.
In the case of `C=CC(=O)N1CCC[C@@H](NC(=O)c2sc3nccc4c3c2NC(=O)N4c2cccc(Oc3ccccc3)n2)C1` [Example 635, (R)—N-(1-Acryloylpiperidin-3-yl)-4-oxo-5-(6-phenoxypyridin-2-yl)-4,5-dihydro-3H-1-thia-3,5,8-triazaacenaphthylene-2-carboxamide], the “BTK_I_binding pIC50” value came to 5.8.
With `O=C(N[C@@H]1CCCNC1)c1sc2nccc3c2c1NC(=O)N3c1ccc2c(c1)OC(F)(F)O2` [Example 636, (R)-5-(2,2-Difluorobenzo[d][1,3]dioxol-5-yl)-4-oxo-N-(piperidin-3-yl)-4,5-dihydro-3H-1-thia-3,5,8-triazaacenaphthylene-2-carboxamide], the “BTK_I_binding pIC50” value came to 5.7.
The same measure, in the same setting: then `CC(C)Oc1cccc(N2C(=O)Nc3c(C(=O)N[C@@H]4CCCNC4)sc4nccc2c34)c1` [Example 637, (R)-5-(3-Isopropoxyphenyl)-4-oxo-N-(piperidin-3-yl)-4,5-dihydro-3H-1-thia-3,5,8-triazaacenaphthlene-2-carboxamide], with 5.7; and `C=CC(=O)N1CCC[C@@H](NC(=O)c2sc3nccc4c3c2NC(=O)N4c2cccc(C(C)(C)C)c2)C1` [Example 638, (R)—N-(1-Acryloylpiperidin-3-yl)-5-(3-(tert-butyl)phenyl)-4-oxo-4,5-dihydro-3H-1-thia-3,5,8-triazaacenaphthylene-2-carboxamide], with 5.7.
As for `CO[C@H]1CN(C(=O)OC(C)(C)C)C[C@@H]1NC(=O)c1sc2nccc3c2c1NC(=O)N3c1ccc(Oc2ccccc2)cc1` [Example 639, (3S,4S)-tert-Butyl 3-methoxy-4-(4-oxo-5-(4-phenoxyphenyl)-4,5-dihydro-3H-1-thia-3,5,8-triazaacenaphthylene-2-carboxamido)pyrrolidine-1-carboxylate], the “BTK_I_binding pIC50” value came to 5.7.
With `C=CC(=O)N1CCC[C@@H](NC(=O)c2sc3nccc4c3c2NC(=O)N4c2cc(OC(C)C)ccc2C)C1` [Example 640, (R)—N-(1-Acryloylpiperidin-3-yl)-5-(5-isopropoxy-2-methylphenyl)-4-oxo-4,5-dihydro-3H-1-thia-3,5,8-triazaacenaphthylene-2-carboxamide], the “BTK_I_binding pIC50” value worked out at 5.6.
On the same count and under the same terms, then `C=CC(=O)N1CCC[C@@H](NC(=O)c2sc3nccc4c3c2NC(=O)N4c2ccc(S(=O)(=O)C(C)(C)C)cc2)C1` [Example 641, (R)—N-(1-Acryloylpiperidin-3-yl)-5-(4-(tert-butylsulfonyl)phenyl)-4-oxo-4,5-dihydro-3H-1-thia-3,5,8-triazaacenaphthylene-2-carboxamide], with 5.6.
`O=C(N[C@@H]1CCCNC1)c1sc2nccc3c2c1NC(=O)N3c1ccc(O)cc1` [Example 642, (R)-5-(4-Hydroxyphenyl)-4-oxo-N-(piperidin-3-yl)-4,5-dihydro-3H-1-thia-3,5,8-triazaacenaphthylene-2-carboxamide]: the “BTK_I_binding pIC50” value amounted to 5.3.
For the compound `CC(=O)c1cccc(N2C(=O)Nc3c(C(=O)N[C@@H]4CCCNC4)sc4nccc2c34)c1` [Example 643, (R)-5-(3-Acetylphenyl)-4-oxo-N-(piperidin-3-yl)-4,5-dihydro-3H-1-thia-3,5,8-triazaacenaphthylene-2-carboxamide], the “BTK_I_binding pIC50” value worked out at 5.1.
As to `Cc1ccc(OC(C)C)cc1N1C(=O)Nc2c(C(=O)N[C@@H]3CCCNC3)sc3nccc1c23` [Example 644, (R)-5-(5-Isopropoxy-2-methylphenyl)-4-oxo-N-(piperidin-3-yl)-4,5-dihydro-3H-1-thia-3,5,8-triazaacenaphthylene-2-carboxamide], the “BTK_I_binding pIC50” value is less than 5.
Still for that read-out and setting: then `O=C(N[C@@H]1CCCNC1)c1sc2nccc3c2c1NC(=O)N3c1cccc(Oc2ccccc2)n1` [Example 645, (R)-4-Oxo-5-(6-phenoxypyridin-2-yl)-N-(piperidin-3-yl)-4,5-dihydro-3H-1-thia-3,5,8-triazaacenaphthylene-2-carboxamide], with less than 5; and `CC(C)(C)c1cccc(N2C(=O)Nc3c(C(=O)N[C@@H]4CCCNC4)sc4nccc2c34)c1` [Example 646, (R)-5-(3-(tert-Butyl)phenyl)-4-oxo-N-(piperidin-3-yl)-4,5-dihydro-3H-1-thia-3,5,8-triazaacenaphthylene-2-carboxamide], with less than 5.
For `O=C(N[C@@H]1CCCNC1)c1sc2nccc3c2c1NC(=O)N3c1cccc(-c2ccncc2)c1` [Example 647, (R)-4-Oxo-N-(piperidin-3-yl)-5-(3-(pyridin-4-yl)phenyl)-4,5-dihydro-3H-1-thia-3,5,8-triazaacenaphthylene-2-carboxamide], the IC50 (read-out: BTK_I_binding pIC50 (converted)) was more than 10 µM.
For the compound `CC(C)(C)OC(=O)N1CCC[C@@H](NC(=O)c2sc3nccc4c3c2NC(=O)N4c2cccc(C(C)(C)C)c2)C1` [Example 648, (R)-tert-Butyl 3-(5-(3-(tert-butyl)phenyl)-4-oxo-4,5-dihydro-3H-1-thia-3,5,8-triazaacenaphthylene-2-carboxamido)piperidine-1-carboxylate], the “BTK_I_binding pIC50” value was less than 5.
As for `CC(=O)c1cccc(N2C(=O)Nc3c(C(=O)N[C@@H]4CCCN(C(=O)OC(C)(C)C)C4)sc4nccc2c34)c1` [Example 649, (R)-tert-Butyl 3-(5-(3-acetylphenyl)-4-oxo-4,5-dihydro-3H-1-thia-3,5,8-triazaacenaphthylene-2-carboxamido)piperidine-1-carboxylate], the “BTK_I_binding pIC50” value is reported as less than 5.
Take `CC(C)(C)S(=O)(=O)c1ccc(N2C(=O)Nc3c(C(=O)N[C@@H]4CCCNC4)sc4nccc2c34)cc1` [Example 650, (R)-5-(4-(tert-Butylsulfonyl)phenyl)-4-oxo-N-(piperidin-3-yl)-4,5-dihydro-3H-1-thia-3,5,8-triazaacenaphthylene-2-carboxamide]: the “BTK_I_binding pIC50” value is less than 5.
Same read-out and setting: next, `CC(C)(C)OC(=O)N1CCC[C@@H](NC(=O)c2sc3nccc4c3c2NC(=O)N4c2ccc(S(=O)(=O)C(C)(C)C)cc2)C1` [Example 651, (R)-tert-Butyl 3-(5-(4-(tert-butylsulfonyl)phenyl)-4-oxo-4,5-dihydro-3H-1-thia-3,5,8-triazaacenaphthylene-2-carboxamido)piperidine-1-carboxylate]: less than 5; `CC(C)(C)OC(=O)N1CCC[C@@H](NC(=O)c2sc3nccc4c3c2NC(=O)N4c2ccc(OC(C)(C)C)cc2)C1` [Example 652, (R)-tert-Butyl 3-(5-(4-(tert-butoxy)phenyl)-4-oxo-4,5-dihydro-3H-1-thia-3,5,8-triazaacenaphthylene-2-carboxamido)piperidine-1-carboxylate]: less than 5.
Regarding `CC(C)(C)OC(=O)N1CCC[C@@H](NC(=O)c2sc3nccc4c3c2NC(=O)N4c2ccc3c(c2)OC(F)(F)O3)C1` [Example 653, (R)-tert-Butyl 3-(5-(2,2-difluorobenzo[d][1,3]dioxol-5-yl)-4-oxo-4,5-dihydro-3H-1-thia-3,5,8-triazaacenaphthylene-2-carboxamido)piperidine-1-carboxylate], the “BTK_I_binding pIC50” value was less than 5.
`CC(C)(C)OC(=O)N1CCC[C@@H](NC(=O)c2sc3nccc4c3c2NC(=O)N4c2ccc(OC3CCC3)nc2)C1` [Example 654, (R)-tert-Butyl 3-(5-(6-cyclobutoxypyridin-3-yl)-4-oxo-4,5-dihydro-3H-1-thia-3,5,8-triazaacenaphthylene-2-carboxamido)piperidine-1-carboxylate]: the “BTK_I_binding pIC50” value was less than 5.
In the case of `C=CC(=O)N1CC[C@@H](O)[C@H](NC(=O)c2sc3nccc4c3c2NC(=O)N4c2ccc(Oc3ccccc3)cc2)C1` [Example 655, N-((3R,4R)-1-Acryloyl-4-hydroxypiperidin-3-yl)-4-oxo-5-(4-phenoxyphenyl)-4,5-dihydro-3H-1-thia-3,5,8-triazaacenaphthylene-2-carboxamide], the “BTK_I_binding pIC50” value stood at 8.0.
Turning to `Cc1nc(Oc2ccccc2)cnc1N1C(=O)Nc2c(C(=O)N[C@@H]3CCCNC3)sc3nccc1c23` [Example 656, (R)-5-(3-Methyl-5-phenoxypyrazin-2-yl)-4-oxo-N-(piperidin-3-yl)-4,5-dihydro-3H-1-thia-3,5,8-triazaacenaphthylene-2-carboxamide], the “BTK_I_binding pIC50” value worked out at 6.2.
Consider `C=CC(=O)N1CCC[C@@H](NC(=O)c2sc3nccc4c3c2NC(=O)N4c2ncc(Oc3ccccc3)nc2C)C1` [Example 657, (R)—N-(1-Acryloylpiperidin-3-yl)-5-(3-methyl-5-phenoxypyrazin-2-yl)-4-oxo-4,5-dihydro-3H-1-thia-3,5,8-triazaacenaphthylene-2-carboxamide], for which the “BTK_I_binding pIC50” value came out at 7.7.
For the compound `O=C(N[C@@H]1CNCC[C@H]1O)c1sc2nccc3c2c1NC(=O)N3c1ccc(Oc2ccccc2)cc1` [Example 658, N-((3R,4R)-4-Hydroxypiperidin-3-yl)-4-oxo-5-(4-phenoxyphenyl)-4,5-dihydro-3H-1-thia-3,5,8-triazaacenaphthylene-2-carboxamide], the “BTK_I_binding pIC50” value turned out to be 6.6.
